Results taken from patent US20230332103A1, “Methods and Compositions for Generating Human Forebrain Neural Progenitor Cells and for Maturation Thereof to Parvalbumin+ Interneurons” (Trailhead Biosystems Inc., priority 2021, published 2023).
“Also recorded” adds a separate entry of the source.

How the values were obtained:
[1] = tested on: cells after termination of stage 4 treatment; test: HD-DoE 8-factor experiment for stage 5 recipe (JQ1, Indolactam-V, Oleic acid, BDNF, IGF-1, 2-phospho-L-Ascorbic acid, Albumax, MK2206), optimized for PVALB; assay type: cell-based, human; conditions: for factor contribution on expression of PVALB: important input for maximum expression of PVALB, FIG. 21; for impact on expression of PVALB: model maximized for PVALB / dynamic profile, FIG. 21 and 22
Description: To further guide the differentiation of forebrain-committed neural stem cells to PVALB interneuron cells at stage 5, we performed a HD-DoE experiment for 3 days after termination of stage 4 treatment. At this time, we focused on maximum expression of PVALB that was expressed in Parvalbumin (+) interneurons and minimum expression of Somatostatin that is another type of interneurons. This 8-factor experiment included JQ1, Indolactam-V, Oleic acid, BDNF, IGF-1, 2-phospho-L-Ascorbic acid, Albumax, MK2206. […] Using dynamic profile analysis, we modified the model to achieve the maximum expression level of PVALB simultaneously and therefore 2-phospho-L-ascorbic acid, BDNF, IGF1 were included while MK2206, Albumax, and JQ1 are excluded (FIG. 22). Considering the model at different optimization settings for maximum differentiation of cells toward ventral forebrain, the recipe for stage 5 of differentiation included BDNF, IGF-1, 2-phospho-L-ascorbic acid from this HD-Doe experiment.

[2] = tested on: stage 4 neural stem cells; test: factor criticality analysis of stage 5 recipe; assay type: cell-based, human; conditions: for effect on expression of somatostatin: FIG. 28; for contribution to expression of PVALB (Parvalbumin): FIG. 28-30
Procedure: To assess the impact of elimination of each validated factor, we again used dynamic profile analysis and compared the expression level of genes of interest in the absence of each finalized factor while others are present.
In the stage 5 recipe, each of seven finalized factors were removed while other factors were kept present and expression levels of PVALB and SST were assessed compared to the presence of all seven factors. […] 2-phospho-L-ascorbic acid, BDNF, IGF-1 were included in the stage 5 recipe (FIG. 28). […] Others were also found to increase the expression of somatostatin that was SST interneuron marker. So, they are excluded from the recipe and N2 was included in the stage 5 recipe (FIG. 29). […] Sodium pyruvate was included in the stage 5 recipe (FIG. 30).

[3] = tested on: human pluripotent stem cells; test: HD-DoE 12-factor experiment for stage 1 recipe, gene expression by quantitative PCR after 3 days; assay type: cell-based; conditions: for factor contribution on expression of OTX2: model of maximum expression of OTX2
Description: This example utilizes a method of High-Dimensional Design of Experiments (HD-DoE), as previously described in Bukys et al. (2020) […] 23:101346. The method employs computerized design geometries to simultaneously test multiple process inputs and offers mathematical modeling of a deep effector/response space. The method allows for finding combinatorial signaling inputs that control a complex process, such as during cell differentiation. It allows testing of multiple plausible critical process parameters, as such parameters impact output responses, such as gene expression. Because gene expression provides hallmark features of the phenotype of, for example, a human cell, the method can be applied to identify, and understand, which signaling pathways control cell fate. In the current example, the HD-DOE method was applied with the intent to find conditions for induction of […] neural progenitor-expressed genes, directly from the pluripotent stem cell state. To develop the recipe for each stage, the impact of agonists and antagonists of multiple signaling pathways (herein called effectors) on the expression of two sets of 53 pre-selected genes, after a 3-day treatment, has been tested and modeled. These effectors are small molecules or proteins that are commonly used during stepwise differentiation of stem cells to specific fates. Choice of the effectors were based on current literature on neural induction in forebrain region of developing brain and differentiation of stem cells to neural progenitors. To test the effectors, experiments with at least 8 factors were designed that can assess the response of cells to 48 or more different combinations of effectors in a range of concentrations. To analyze the models, we focused on expression of genes involved in development and patterning of the anterior neuroectoderm and forebrain including OTX2 (Hoch et al. (2015) Cell Reports 12:482-494), SIX3 (Lagutin et al. (2003) Genes & Development 17:368-379) and FEZF2 (Zhang et al. (2014) Development 141:4794-[…]). At later stages we focused on dorsoventral patterning of telencephalon and gene expressed in ventral forebrain including NKX2-1 and absence of PAX6 which is a dorsal forebrain marker (Stoykova et al. (2000) J. Neurosci. 20:8042-8050). The impact of each effector on gene expression level is defined by a parameter called factor contribution that is calculated for each effector during the modeling. To identify the recipe for stage 1 of differentiation, 96 different combinations of effectors generated using Design-of-Experiments compression through D-optimality were robotically prepared. The effector combinations were prepared in a basal media and were subsequently added to the cells, which were then allowed to differentiate. Three days later RNA extraction was performed, and gene expression was obtained using quantitative PCR analysis. […] Solutions within the tested space could then be explored to address desirability. Optimizing for maximal expression of SIX3 at 3300 and FEZF2 1355 expression values led to robust solutions. This model was derived from testing 12 effectors including AGN193109, LDN193189, CHIR99021, XAV939, IGF2, Purmorphamine, 4-oxo-RA, TTNPB, SR11237, FGF8, PD0325901 and […]. […] The model was also optimized for maximum expression of FEZF2 separately at 3576 expression value to find any additional factors that can boost expression of forebrain genes. […] To find the set of factors that have the potential to optimize all 3 genes in this experiment, a new assessment was done through dynamic profile analysis with focus on maximal expression of OTX2, FEZF2 and SIX3.

[4] = tested on: human pluripotent stem cells; test: additional HD-DoE experiment for stage 1 (forebrain differentiation from pluripotency), optimized for FEZF2; assay type: cell-based; conditions: for impact on expression of FEZF2: dynamic profile, FIG. 6; for factor contribution on expression of FEZF2: positive impact, additional stage 1 experiment optimized for FEZF2, FIG. 5
Procedure: To identify the recipe for stage 1 of differentiation, 96 different combinations of effectors generated using Design-of-Experiments compression through D-optimality were robotically prepared. The effector combinations were prepared in a basal media and were subsequently added to the cells, which were then allowed to differentiate. Three days later RNA extraction was performed, and gene expression was obtained using quantitative PCR analysis. The data were normalized and modeled using partial least squares regression analysis to the effector design, resulting in the generation of gene-specific models, which after model tuning for maximal Q2 predictive power, provided explanation of the effectors ability to control the expression of individual genes, combinatorially, and individually. Solutions within the tested space could then be explored to address desirability.
To further enhance the conditions for forebrain differentiation from pluripotency, an additional HD-DoE experiment was performed. Additional gene regulatory models were obtained that were used for preparation of the differentiation protocol. The factors in this experiment included LDN193189, PD173074, BLU9931, Purmorphamine, SC79, MK2206, ZM336372, PD0325901, CHIR99021, XAV939, UCLA-GP130, Tofacitinib and GO6983. […] Dynamic profile analysis was also used to assess the interaction between the effectors.

[5] = tested on: forebrain-committed neural stem cells (stage 1 neural stem cells); test: HD-DoE 12-factor experiment for stage 2 recipe, optimized for NKX2-1; assay type: cell-based, human; conditions: model maximized for NKX2-1 / dynamic profile, FIG. 7 and 8
Procedure: To further guide the differentiation of forebrain-committed neural stem cells to ventral forebrain neural stem cells at stage 2, a HD-DoE experiment was performed for 3 days after termination of stage 1 treatment. At this time, we focused on maximum expression of NKX2-1 that is expressed in ventral forebrain region and minimum expression of PAX6 that is expressed in dorsal forebrain region. This 12-factor experiment included LDN193189, BMP7, PD0325901, MK2206, A8301, XAV939, CHIR99021, Purmorphamine, SANT-1, AGN193109, TTNPB and GSI-XX.

[6] = tested on: human pluripotent stem cells; test: factor criticality analysis (dynamic profile analysis) of stage 1 recipe; assay type: cell-based; design: unit not given here; conditions: other five factors present; for expression level of FEZF2 when the effector is removed: 2000 with all six factors; for expression level of SIX3 when the effector is removed: 3000 with all six factors; for expression level of OTX2 when the effector is removed: 5500 with all six factors
Procedure: (§1) To assess the impact of the elimination of each validated factor, dynamic profile analysis was used and compared the expression level of genes of interest in absence of each finalized factor while others are present.
In the stage 1 recipe, each of the six finalized factors were removed individually while the other five factors were present and expression levels of forebrain genes was assessed compared to the presence of all six factors together. The results are summarized in FIG. 11A-B. When LDN193189 was removed, expression levels of FEZF2, OTX2 and SIX3 were decreased drastically from 2000 to 1000, 5500 to 4000 and 3000 to 0, respectively. […] When Purmorphamine was removed, levels of FEZF2 and SIX3 were decreased to 1000 and below 3000, while levels of OTX2 increased to 6500.

[7] = tested on: forebrain-committed neural stem cells (stage 1 neural stem cells); test: factor criticality analysis (dynamic profile analysis) of stage 2 recipe; assay type: cell-based, human; conditions: stage 2 recipe, other three factors present; for expression level of PAX6 in the absence of the effector: 0 with all four factors; for expression level of NKX2-2 in the absence of the effector: 100 with all four factors; for expression level of NKX2-1 in the absence of the effector: 5000 with all four factors
Procedure: as §1
In the stage 2 recipe, each of the four finalized factors were removed while the other three factors remained present and expression levels of NKX2-1, PAX6 and NKX2-2 were assessed compared to presence of all four factors. The results are summarized in FIG. 13A-B. Absence of PD0325901 reduced the levels of NKX2-1 and NKX2-2 while increasing PAX6 from 5000 to 3200, 100 to 0 and 0 to 5000, respectively. […] Removing XAV939 reduced the levels of NKX2-1 from 5000 to 3000, while increasing both PAX6 and NKX2-2 to 10000 and 200, respectively. Another observation was the interaction between XAV939 and Purmorphamine. In the absence of XAV939, the impact of Purmorphamine on NKX2-1 became negative and, as it is shown in interaction plot of FIG. 14, the level of NKX2-1 is higher when both factors are present.

## O=C1O[C@H]([C@@H](O)CO)C(O)=C1OP(=O)(O)O [2-phospho-L-ascorbic acid]
[1]
  factor contribution on expression of PVALB: 15.04
  impact on expression of PVALB: increase its expression level
[1]; listed as 2-phospho-L-Ascorbic acid
  impact on expression of PVALB: positive impact
[2]
  effect on expression of somatostatin: did not change
  contribution to expression of PVALB (Parvalbumin): positive contribution

## CC(C)[C@H]1C(=O)N[C@H](CO)Cc2c[nH]c3cccc(c23)N1C [Indolactam-V]
[1]
  impact on expression of PVALB: increase its expression level; also recorded: positive impact

## CCCCCCCC/C=C\CCCCCCCC(=O)OC[C@@H](O)COP(=O)(O)O [O-LPA, 1-Oleoyl lysophosphatidic acid]
[2]; FIG. 31
  contribution to expression of GAD1: contribute to the expression
  contribution to expression of LHX6: contribute to the expression

## CCCCCCCC/C=C\CCCCCCCC(=O)O [Oleic acid]
[1]
  impact on expression of PVALB: increase its expression level; also recorded: positive impact

## O=C(NOC[C@H](O)CO)c1ccc(F)c(F)c1Nc1ccc(I)cc1F [PD0325901]
[3]; positive impact
  factor contribution on expression of OTX2: low
[3]; positive impact, model optimized for maximum expression of FEZF2
  factor contribution on expression of FEZF2: 10
[4]
  impact on expression of FEZF2: positive impact
  factor contribution on expression of FEZF2: 15
[5]
  impact on expression of NKX2-1: increase its expression level; also recorded: Positive impact
[6]
  expression level of FEZF2 when the effector is removed: drop
  expression level of SIX3 when the effector is removed: did not have a significant impact
  expression level of OTX2 when the effector is removed: did not have a significant impact
[7]
  expression level of PAX6 in the absence of the effector: 5000
  expression level of NKX2-2 in the absence of the effector: 0
  expression level of NKX2-1 in the absence of the effector: 3200

## Oc1nc(-c2ccc(C(F)(F)F)cc2)nc2c1CSCC2 [XAV939]
[3]; dynamic profile analysis, FIG. 4
  impact on expression of OTX2: positive impact
[3]; positive impact
  factor contribution on expression of OTX2: low
[3]; positive impact, model optimized for maximal expression of SIX3, 3-day treatment
  factor contribution on expression of SIX3: 5
[4]
  impact on expression of FEZF2: positive impact
  factor contribution on expression of FEZF2: 12
[5]
  impact on expression of NKX2-1: increase its expression level; also recorded: Positive impact
[6]
  expression level of FEZF2 when the effector is removed: 1700
  expression level of SIX3 when the effector is removed: 1000
  expression level of OTX2 when the effector is removed: 5000
[7]
  expression level of PAX6 in the absence of the effector: 10000
  expression level of NKX2-2 in the absence of the effector: 200
  expression level of NKX2-1 in the absence of the effector: 3000

B1: BDNF: brain-derived neurotrophic factor, ligand of BDNFR signaling pathway (protein, UniProt P23560 19-247, looked up)
Neurotrophic factor BDNF …: APMKEANIRGQGGLAYPGVRTHGTLESVNGPKAGSRGLTSLADTFEHVIEELLDEDQKVRPNEENNKDADLYTSRVMLSSQVPLEPPLLFLLEEYKNYLDAANMSMRVRRHSDPARRGELSVCDSISEWVTAADKKTAVDMSGGTVTVLEKVPVSKGQLKQYFYETKCNPMGYTKEGCRGIDKRHWNSQCRTTQSYVRALTMDSKKRIGWRFIRIDTSCVCTLTIKRGR
[1]
  factor contribution on expression of PVALB: 14.6
  impact on expression of PVALB: increase its expression level; also recorded: positive impact
[2]
  effect on expression of somatostatin: did not change
  contribution to expression of PVALB (Parvalbumin): positive contribution
